Results taken from patent US7317002B2, “Site-specific preparation of polyethylene glycol-GRF conjugates” (Applied Research Systems ARS Holding N.V., priority 1997, dated 2008).
No end group written: not given here.

Key:
[1] = biological target: T1, human growth hormone releasing factor receptor (hGRF-R) (Homo sapiens, UniProt Q02643); assay: CHO-hGRFR-LUC in vitro assay (luciferase reporter gene assay); format: cell-based; conditions: DMSO and nicotinamide preparations; FIGS. 5-7
T1 construct: expressed in transfected cells; host or cells: CHO-DUKX (clone CHO-hGRFR-LUC 1-11-20)
T1 sequence (Q02643 23-423): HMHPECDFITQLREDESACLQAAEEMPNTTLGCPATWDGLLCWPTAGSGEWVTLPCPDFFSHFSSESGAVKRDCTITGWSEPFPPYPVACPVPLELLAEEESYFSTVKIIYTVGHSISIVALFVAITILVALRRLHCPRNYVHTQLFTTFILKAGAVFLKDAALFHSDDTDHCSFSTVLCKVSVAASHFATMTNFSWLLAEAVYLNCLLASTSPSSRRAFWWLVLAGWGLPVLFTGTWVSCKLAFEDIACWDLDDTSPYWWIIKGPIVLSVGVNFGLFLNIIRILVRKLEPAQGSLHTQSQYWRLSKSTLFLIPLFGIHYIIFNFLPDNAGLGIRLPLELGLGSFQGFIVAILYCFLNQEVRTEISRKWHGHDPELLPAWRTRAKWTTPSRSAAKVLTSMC
From the text: CHO-hGRFR-LUC in Vitro Assay
CHO-hGRFR-LUC (clone 1-11-20) is a cloned cell line that had been obtained by cotransfection of the pcDNA3-hGRF-R and pTF5-53 LUC vectors into CHO-DUKX cell line.
The plasmid pcDNA3-hGRF-R was constructed by inserting the human growth hormone releasing factor receptor (hGRF-R) cDNA into pcDNA3 expression vector. The Bluescript plasmid containing hGRF-R cDNA was kindly provided by Dr. B. Gaylinn (University of Virginia) the pcDNA3 mammalian expression vector was obtained from Invitrogen. The hGRF-R coding sequence was driven by the human cytomegalovirus (CMV) promoter.
The plasmid pTF5-53LUC was constructed by inserting the c-fos cAMP response element along with its endogenous promoter upstream of the luciferase coding sequence in plasmid poLuc. The cAMP response element and the c-fos promoter were obtained from the plasmid pTF5-53 (described in Fish et al, 1989). The promoterless reporter gene vector (poLuc) with multiple cloning sites upstream of the luciferase coding sequence was obtained from Dr. Brasier (University of Texas, Galveston).
These CHO-DUKX cells obtained by the above co-transfection were routinely grown in MEM alpha medium containing ribonucleosides and deoxyribonucleosides and supplemented with 10% fetal calf serum plus 600 μg/ml geneticin G418 sulfate.
The cells were seeded (40,000 cells/well) in white 96-well plates (Dynatech) and incubated for 16-18 hrs in 200 μl growth medium before the assay.
The next day, the medium was removed and replaced with a medium containing different concentrations of hGRF(1-29) in-house reference standard (Bachem) or different hGRF-PEG conjugates before incubating the plates at 37° C., 5% CO2 for two hours. At the end of incubation, CHO-hGRFR-LUC cells were washed twice with 200 μl of PBS (Sigma) and then lysed by adding 50 μl of a cell culture lyses reagent (Promega) to each well. After a further 15-minute incubation at room temperature, the plates were read in a luminometer (Dynatech) after introducing 150 μl of a luciferase assay reagent (Promega).
As an alternative method, CHO-hGRFR-LUC cells, seeded at 50,000 cells/well, at the end of incubation with different hGRF-PEG conjugates, were washed with PBS, as above discussed. To each well 100 μl PBS containing calcium and magnesium ions was added, prior to addition of 100 μl of Luclite (Packard). After 10 minutes incubation at room temperature, plates were read in luminometer (Lumicount-Packard).
Results were expressed as relative light unit (RLU).

GH serum levels = assay: In vivo assay: serum GH levels after i.v. injection in male rats; parameters: species or system Sprague-Dawley rats; conditions: for GH serum levels induced, compared with hGRF1-29: 400 μg i.v., rats, DMSO preparations, FIG. 11A
Procedure: (§1) SPF adult male Sprague-Dawley rats, 200-250 g b.w, supplied by Charles River, are used after an acclimatisation period of at least 7 days.
(§2) The animal was injected i.v. with hGRF(1-29) (400 μg/rat). A few minutes before blood collection, the animal was anaesthetized (ketamine-xylazine). […] The sample was divided into two aliquots: 1 ml was collected as such and serum was obtained after an incubation period of about 3 hours at 37° C. and subsequent centrifugation; the remaining 1 ml was collected into a vial containing 50 μl of a 4 mg/ml heparin solution, immediately stored on ice and plasma was obtained after centrifugation at 4° C.
(§3) Blood samples were collected at different time points from the injection of the test compound using different animals. In each experimental session a total of three rats for each time point was used.
(§4) Plasma and serum samples were immediately frozen and stored at −20° C.
(§5) GH serum levels were measured by a commercial RIA kit; hGRF plasma levels were measured by a commercial RIA kit for hGRF(1-44).

[2] = In vivo assay: plasma hGRF levels after i.v. injection in male rats; parameters: species or system Sprague-Dawley rats
Procedure: as §1, §2, §3, §4, §5

[3] = Solubility in aqueous buffer; format: physicochemical; conditions: water solution at neutral or slightly alkaline pH
[4] = cited from earlier work
rat pituitary cell = assay: In vitro rat pituitary cell bioassay (GH release); format: cell-based; conditions: two DMSO preparations; FIGS. 8 and 9
Procedure: In vitro rat pituitary cell bioassay for hGRF(1-29)
The animals (SPF male Sprague-Dawley rats 200 g, b.w.) were sacrificed by CO2 inhalation and the pituitaries removed. The tissue was finely minced and put into a bottle with the enzyme solution for tissue digestion. The bottle was placed in an incubator at 37° C. for 1 hour.
The digested tissue was recovered and the cells washed twice, counted and adjusted to a concentration of 5×10^5/ml. The cells were plated out in a 48-well plate (200 μl/well) and the plate placed in an incubator for 72 hrs.
After 72 hrs the cells were incubated with different concentrations of hGRF for 4 hours. At the end of the incubation period the supernatants were collected and stored at −80° C.
The GH content in each sample was assayed by a commercial rat GH radioimmunoassay kit.

Compound: CC[C@H](C)[C@H](NC(=O)[C@H](C)NC(=O)[C@H](CC(=O)O)NC(=O)[C@H](C)NC(=O)[C@@H](N)Cc1ccc(O)cc1)C(=O)N[C@@H](Cc1ccccc1)C(=O)N[C@H](C(=O)N[C@@H](CC(N)=O)C(=O)N[C@@H](CO)C(=O)N[C@@H](Cc1ccc(O)cc1)C(=O)N[C@@H](CCCNC(=N)N)C(=O)N[C@@H](CCCCN)C(=O)N[C@H](C(=O)N[C@@H](CC(C)C)C(=O)NCC(=O)N[C@@H](CCC(N)=O)C(=O)N[C@@H](CC(C)C)C(=O)N[C@@H](CO)C(=O)N[C@@H](C)C(=O)N[C@@H](CCCNC(=N)N)C(=O)N[C@@H](CCCCN)C(=O)N[C@@H](CC(C)C)C(=O)N[C@@H](CC(C)C)C(=O)N[C@@H](CCC(N)=O)C(=O)N[C@@H](CC(=O)O)C(=O)N[C@H](C(=O)N[C@@H](CCSC)C(=O)N[C@@H](CO)C(=O)N[C@@H](CCCNC(=N)N)C(N)=O)[C@@H](C)CC)C(C)C)[C@@H](C)O [hGRF, hGRF(1-29)—NH2, reference compound]
- biological effect (activity) in the CHO-hGRFR-LUC in vitro assay [1]: No difference
- time at which serum GH returned to basal levels (GH serum levels; 400 μg/rat i.v., male rats): 60 min
- time of serum GH peak after i.v. injection (GH serum levels; 400 μg/rat i.v., male rats): 10 min
- plasma hGRF concentrations up to 60 min ([2]; 400 μg/rat i.v., male rats, FIG. 10): maintained a sustained level
- Tmax ([2]; male, Sprague-Dawley, rat, in vivo, iv, 400 ug/animal): 10 min
- solubility in neutral/alkaline buffer solution [3]: low solubility

Compound: GRF: peptide secreted by the hypothalamus which promotes the release of growth hormone; exists as 44-, 40-, or 37-amino acid peptide
- biological half-life [4]: 12 to 30 minutes

Compound: N^α-(PEG5,000—CH2—CO—Nle—CO)[Lys(MPEG5,000—CH2—CO—Nle—CO)^12,21-hGRF(1-29)—NH2] [GRF-3PEG]
- GH release from rat pituitary cell in vitro (rank of activity) (rat pituitary cell): then GRF-3PEG
- GH serum levels induced, compared with hGRF1-29 (GH serum levels): lower activity

Compound: [Lys(MPEG5,000—CH2—CO—Nle—CO)^12,21-hGRF(1-29)—NH2] [GRF-2PEG]
- GH serum levels induced, compared with hGRF1-29 (GH serum levels): comparable to those obtained with hGRF1-29

Compound: [Lys(MPEG5,000—CH2—CO—Nle—CO)^12-hGRF(1-29)—NH2] [GRF-1PEG 2nd peak]
- biological effect (activity) in the CHO-hGRFR-LUC in vitro assay [1]: more active than the GRF-2PEG and GRF-3PEG
- GH serum levels induced, compared with hGRF1-29 (GH serum levels): comparable to those obtained with hGRF1-29

Compound: [Lys(MPEG5,000—CH2—CO—Nle—CO)^21-hGRF(1-29)—NH2] [GRF-1PEG 1st peak]
- biological effect (activity) in the CHO-hGRFR-LUC in vitro assay [1]: more active than the GRF-2PEG and GRF-3PEG
- GH release from rat pituitary cell in vitro (rank of activity) (rat pituitary cell): the most active compound
- GH serum levels induced, compared with hGRF1-29 (GH serum levels): comparable to those obtained with hGRF1-29

Compound: hGRF(3-29) (DAIFTNSYRKVLGQLSARKLLQDIMSR; ends and bridges not checked; UniProt P01286 34-60, looked up, fragment) [Human GRF3-29, two preparations, supplied by Bachem and by ISL, reference compound]
- biological effect (activity) in the CHO-hGRFR-LUC in vitro assay [1]: did not possess a significant in vitro activity
